Legend:
human NK-3 receptor [1] = target: T1, human NK-3 receptor (Homo sapiens (Human), UniProt P29371); test: 3H-SB222200 binding competition assay with human NK-3 receptor; details: Table 6; membranes of CHO cells expressing human NK3 receptor, 5 nM 3H-SB222200; read-out: Ki
Description: ^3H-SB222200 Binding Competition Assay with Human NK-3 Receptor
The membranes were incubated with 5 nM ^3H-SB222200(ARC) in a HEPES 25 mM/NaCl 0.1M/CaCl2 1 mM/MgCl2 5 Mm/BSA 0.5%/Saponin 10 μg/ml buffer at pH 7.4 and various concentrations of compounds of the invention. The amount of ^3H-SB222200 bound to the receptor was determined after filtration by the quantification of membrane associated radioactivity using the TopCount-NXT reader (Packard).

human NK-3 receptor [2] = target: T1, human NK-3 receptor; test: Aequorin functional assay with human NK-3 receptor (antagonist testing vs NKA); format: cell-based; details: inhibition of NKA (3 nM, EC80) response, CHO cells expressing human NK3 receptor and apoaequorin

T1 sequence (P29371 whole entry): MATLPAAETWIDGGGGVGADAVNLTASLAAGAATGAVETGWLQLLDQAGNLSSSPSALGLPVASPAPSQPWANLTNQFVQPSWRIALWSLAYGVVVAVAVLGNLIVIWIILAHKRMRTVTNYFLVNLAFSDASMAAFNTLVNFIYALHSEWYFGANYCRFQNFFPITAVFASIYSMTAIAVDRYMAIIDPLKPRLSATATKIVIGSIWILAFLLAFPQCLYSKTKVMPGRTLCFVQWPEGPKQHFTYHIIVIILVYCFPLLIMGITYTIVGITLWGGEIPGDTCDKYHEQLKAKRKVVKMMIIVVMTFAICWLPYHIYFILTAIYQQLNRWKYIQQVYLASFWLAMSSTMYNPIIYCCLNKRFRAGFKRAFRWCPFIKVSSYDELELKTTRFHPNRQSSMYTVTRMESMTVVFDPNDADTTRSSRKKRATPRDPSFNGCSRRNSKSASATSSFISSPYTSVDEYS

Structure (SMILES) | Ki (human NK-3 receptor [1]) | IC50 (human NK-3 receptor [2])
Cc1nc(-c2nnc3n2CCN(C(=O)c2ccc(-c4ccccc4)cc2)[C@@H]3C)cs1 [Compound 2, (R)-[1,1′-biphenyl]-4-yl(8-methyl-3-(2-methylthiazol-4-yl)-5,6-dihydro-[1,2,4]triazolo[4,3-a]pyrazin-7(8H)-yl)methanone] | 26 nM | 28 nM
CCc1nc(-c2nnc3n2CCN(C(=O)c2ccc(-c4cccs4)cc2)[C@@H]3C)cs1 [Compound 5, (R)-(3-(2-ethylthiazol-4-yl)-8-methyl-5,6-dihydro-[1,2,4]triazolo[4,3-a]pyrazin-7(8H)-yl)(4-(thiophen-2-yl)phenyl)methanone] | 5 nM | 3 nM
CCc1nc(-c2nnc3n2CCN(C(=O)c2ccc(-c4ccccc4)cc2)[C@@H]3C)cs1 [Compound 6, (R)-[1,1′-biphenyl]-4-yl(3-(2-ethylthiazol-4-yl)-8-methyl-5,6-dihydro-[1,2,4]triazolo[4,3-a]pyrazin-7(8H)-yl)methanone] | 11 nM | 10 nM
C=Cc1nc(-c2nnc3n2CCN(C(=O)c2ccc(-c4cccs4)cc2)[C@@H]3C)cs1 [Compound 7, (R)-(8-methyl-3-(2-vinylthiazol-4-yl)-5,6-dihydro-[1,2,4]triazolo[4,3-a]pyrazin-7(8H)-yl)(4-(thiophen-2-yl)phenyl)methanone] | 4 nM | 3 nM
C=Cc1nc(-c2nnc3n2CCN(C(=O)c2ccc(-c4ccccc4)cc2)[C@@H]3C)cs1 [Compound 8, (R)-[1,1′-biphenyl]-4-yl(8-methyl-3-(2-vinylthiazol-4-yl)-5,6-dihydro-[1,2,4]triazolo[4,3-a]pyrazin-7(8H)-yl)methanone] | 7 nM | 7 nM
C=Cc1nc(-c2nnc3n2CCN(C(=O)c2ccc(-c4cccs4)cc2)C3)cs1 [Compound 9, (4-(thiophen-2-yl)phenyl)(3-(2-vinylthiazol-4-yl)-5,6-dihydro-[1,2,4]triazolo[4,3-a]pyrazin-7(8H)-yl)methanone] | 19 nM | 18 nM
C=Cc1nc(-c2nnc3n2CCN(C(=O)c2ccc(-c4ccccc4)cc2)C3)cs1 [Compound 10, [1,1′-biphenyl]-4-yl(3-(2-vinylthiazol-4-yl)-5,6-dihydro-[1,2,4]triazolo[4,3-a]pyrazin-7(8H)-yl)methanone] | 36 nM | 20 nM
Cc1nc(-c2nnc3n2CCN(C(=O)c2ccc(-c4ccccc4)cc2)[C@@H]3C)co1 [Compound 12, (R)-[1,1′-biphenyl]-4-yl(8-methyl-3-(2-methyloxazol-4-yl)-5,6-dihydro-[1,2,4]triazolo[4,3-a]pyrazin-7(8H)-yl)methanone] | 70 nM | 58 nM
CC(C)c1nc(-c2nnc3n2CCN(C(=O)c2ccc(-c4cccs4)cc2)[C@@H]3C)co1 [Compound 13, (R)-(3-(2-isopropyloxazol-4-yl)-8-methyl-5,6-dihydro-[1,2,4]triazolo[4,3-a]pyrazin-7(8H)-yl)(4-(thiophen-2-yl)phenyl)methanone] | 3 nM | 2 nM
CC(C)c1nc(-c2nnc3n2CCN(C(=O)c2ccc(-c4cccs4)cc2)C3)co1 [Compound 14, (3-(2-isopropyloxazol-4-yl)-5,6-dihydro-[1,2,4]triazolo[4,3-a]pyrazin-7(8H)-yl)(4-(thiophen-2-yl)phenyl)methanone] | 42 nM | 47 nM
C[C@@H]1c2nnc(-c3coc(C4CC4)n3)n2CCN1C(=O)c1ccc(-c2cccs2)cc1 [Compound 15, (R)-(3-(2-cyclopropyloxazol-4-yl)-8-methyl-5,6-dihydro-[1,2,4]triazolo[4,3-a]pyrazin-7(8H)-yl)(4-(thiophen-2-yl)phenyl)methanone] | 11 nM | 9 nM
Cc1coc(-c2nnc3n2CCN(C(=O)c2ccc(-c4cccs4)cc2)[C@@H]3C)n1 [Compound 26, (R)-(8-methyl-3-(4-methyloxazol-2-yl)-5,6-dihydro-[1,2,4]triazolo[4,3-a]pyrazin-7(8H)-yl)(4-(thiophen-2-yl)phenyl)methanone] |  | 12 nM
